The source of these data is patent US9192595B2, “Compounds with a skin pigmenting activity and pharmaceutical or cosmetic compositions containing them” (priority 2010, dated 2015).

Structures are written as SMILES.

In test [1] the test system is foreskin primary melanocyte cultures. The test can be described thus: Intracellular melanin content by spectrophotometry in melanocyte cell lysates. In kind it is cell-based, human. Conditions: 72 h; 40 and 55 μM; NHM LP and NHM HP; vs. Ctr; FIG. 5. The source says: (§1) A second experimental study assessed the action of the compounds according to the invention on the phenomena of melanocyte differentiation in the melanogenic process, as described below with reference to the attached drawings in FIGS. 3, 4 and 5. For this purpose, octatrienoic acid (called Octa in the diagrams, for the sake of brevity) was used on foreskin primary melanocyte cultures with varying degrees of basal pigmentation to assess the following parameters: • a) mRNA and tyrosinase protein expression, using real-time RT-PCR and Western-blot methods; • b) enzymatic activity of tyrosinase by spectrophotometry; • c) Quantification of melanin genesis by spectrophotometry.
In FIG. 5, *=p<0.05 vs. Ctr, **=p<0.01 vs. Ctr, $=p<0.001 vs. ctr.

The test system of the next test is tyrosinase protein. Briefly: Western blot analysis of tyrosinase protein expression in primary melanocyte cultures. It counts as cell-based, human. To be noted: 72 h; same doses (40 and 55); Western blot on protein extracts.
Excerpt: as §1
A general note: In western blotting, separated proteins are transferred to a membrane and probed.

In another test the test system is tyrosinase mRNA. Briefly: Tyrosinase mRNA expression by real-time RT-PCR in primary melanocyte cultures. It counts as cell-based, human. Conditions: 24 h incubation; 40 and 55 μm; NHM LP and NHM HP; vs. Ctr; FIG. 3.
Excerpt: as §1
Tyrosinase mRNA expression was assessed by real-time RT-PCR on mRNA specimens extracted from cells after 24 h of incubation with octatrienoic acid at concentrations of 40 and 55 μm.
Forskoline (FSK), a known adenylate cyclase activator capable of promoting melanin synthesis, was used as a control for comparison with the activity of octatrienoic acid.
For these columns, *=p<0.01 vs. Ctr, **=p<0.001 vs. Ctr, and $=p<0.05 vs. Ctr.
Background: Real-time PCR tracks product formation cycle by cycle.

The subject of another test is tyrosinase. The test can be described thus: Tyrosinase enzymatic activity by spectrophotometry on melanocyte cell lysates. It counts as cell-based, human. Conditions: 72 h; 40 and 55 μM; NHM LP and NHM HP; p<0.05 vs. Ctr; FIG. 4.
Excerpt: as §1
The activity of tyrosinase was evaluated by spectrophotometry on cell lysates derived from specimens incubated for 72 h with octatrienoic acid at concentrations of 40 and 55 μM, vs. control culture.
For these columns, *=p<0.05 vs. Ctr.

A further test relates to Normal human scalp skin. The test can be described thus: Epidermal pigmentation in full-thickness skin organ culture (quantitative Masson-Fontana staining). In kind it is cell-based. The protocol:
This experimental study on the active ingredient octatrienoic acid according to the invention was based on organ cultures of skin biopsies, which were tested in 4 groups (3 skin biopsies/well) and incubated with different concentrations of the active ingredient for 6 days.
Normal human scalp skin was obtained from a person undergoing routine face-lift surgery, subject to their informed consent. All experiments were performed in accordance with the Declaration of Helsinki, with the approval of an ad hoc Ethical Committee.
Biopsies 3-4 mm in size were cultured at 37° C. for 6 days in Williams' E medium (Biochrom, Cambridge, U.K.) supplemented with 100 IU mL^−1 penicillin, 10 μg mL^−1 streptomycin (Gibco, Karlsruhe, Germany), 10 μg mL^−1 insulin (Sigma, Taufkirchen, Germany), 10 ng mL^−1 hydrocortisone (Sigma) and 2 mmol L^−1 L-glutamine (Invitrogen, Paisley, UK).
Three different concentrations of octatrienoic acid (0.1 μg/mL, 0.25 μg/mL, 0.5 μg/mL) or the reference medium were administered once, at each change of medium (i.e. every 48 hours).
For histochemical melanin assessment, Masson-Fontana staining was applied to frozen adult human scalp skin sections. Melanin stained as brown spots and the degree of pigmentation was evaluated using the quantitative Masson-Fontana test, as described elsewhere (Ito et al., 2005). This method gives a sensitive and reliable indication of changes in melanin synthesis, as shown by standard tyrosinase expression and enzyme activity assays. (Kauser et al., 2006)
Staining intensity was analysed in a previously-defined reference area of the epidermis using ImageJ software (National Institute of Health).
The statistical analysis was performed using Student's two-tailed t-test for independent samples.

With `C/C=C/C=C/C=C/C(=O)O` [octatrienoic acid], the “quantity of intracellular melanins” value in test [1] was “significant induction”. Further, the “melanogenic enzyme (tyrosinase) protein expression” value in the test on tyrosinase protein is reported as “induced melanogenic enzyme protein expression”. The “tyrosinase mRNA expression (Rel tyr mRNA expression, fold change)” value in the test with tyrosinase mRNA is listed as “significant induction”. Also, the “tyrosinase enzymatic activity, % of the Ctr” value in the test on tyrosinase is recorded as “significant increase”. Further, in the test on Normal human scalp skin (day 6, each dose (0.1, 0.25, 0.5 μg/mL) by comparison with the medium alone, FIG. 1), the “intensity of Masson-Fontana staining” value was “marked increase”. Besides, the “pigmentation in the basal layer of the epidermis” value in the test on Normal human scalp skin (day 6, each dose administered, microphotographs x200, FIG. 2) is “increased pigmentation”. In addition, the skin pigmentation entry with Normal human scalp skin (skin culture, all three doses tested (0.1, 0.25, 0.5 μg/mL), 6 days) is listed as “increased the skin pigmentation”.
